Assay results: paper PMC12070228, “Investigations of Enteric-Coated Tablet Propyl Gallate-Induced Nephrotoxicity in Beagles as well as Human and Dog Renal Proximal Tubule Epithelial Cells” (ACS Pharmacology & Translational Science, 2025)
Read-outs that look alike come from different tables or passages of the source.

Legend:
[1] = PG toxicokinetics in dog plasma (LC-MS/MS), studies 001-005; format: in vivo; details: beagle, po
Protocol: Samples were vortexed and centrifuged before injection.
(§1) The total run time was 5.5 min.
(§2) The targeted quantitation of PG and phase-I/II metabolites was conducted using peak area ratio of analytes and internal standards in MultiQuant software (SCIEX).
In the follow-up 4-week study (study 003), dogs received EC tablets consisting of the clinical formulation excipients minus PG, clinical formulation excipients minus NaCDC, or PG alone in a gelatin capsule once daily for 26 days. […] Samples for PG toxicokinetics were collected on days 1 and 22 of the dosing-phase at predose (Day 22 only) and 0.5, 1, 2, 4, 6, 8, 12, and 24 h postdose. […] Plasma samples for the measurement of lipopolysaccharide (LPS) were taken twice in the pretest period, predose and 2 h after dosing on Days 15 and 22, and prior to necropsy. LPS concentrations were measured using a qualified sandwich ELISA method (LSBiosciences) with a detection range of 7.82 to 500 pg/mL.
Table S2. Correlation of PG exposure with nephrotoxicity.
AUC0-24 = area under the concentration versus time curve from time 0 to 24 hours; clin = clinical; F = female; M = male; NR = no result due to insufficient data. […]
a Clinical formulation excipients included sodium chenodeoxycholate (Na CDC), propyl gallate (PG), tris(hydroxymethyl)aminomethane (Tris)(except for Study 005), mannitol, crospovidone, aerosil, sodium stearyl fumarate, eudragit, and plasarcryl. b Study 001: Initial 4-week investigational new drug (IND)-enabling good laboratory practice (GLP) study c Study 002: Investigative 4-week study with different excipient combinations d Study 003: Follow-up investigative 4-week study with non-enteric coated capsule e Study 004: 3-month GLP study f Study 005: 9-month GLP study g Day 7 AUC value is presented; AUC could not be calculated for Day 28 samples due to insufficient data. h Minimal nephropathy observed in 2 recovery (4 weeks) group females, but not in main group animals.

[2] = PG pharmacokinetics in healthy volunteers, clinical study NCT03362593 (validated LC-MS/MS); format: in vivo; details: human, plasma, oral EC MEDI7219 tablets, PG 200, 400 or 800 mg
Protocol: as §1, §2
Healthy volunteers participating in the clinical study NCT03362593 received single or multiple ascending doses of MEDI7219 tablets. Healthy volunteers received EC MEDI7219 tablets containing 200, 400, or 800 mg PG per tablet. The clinical plasma samples were analyzed using the validated method described above. […] After oral administration of tablets containing PG, the T max of PG was reached around 3–4 h postdose.

beagles = test: Follow-up 4-week study 003: EC tablets vs PG alone in gelatin capsule, nephrotoxicity; format: in vivo, beagle dog; details: dogs, target PG 200 mg/kg/day once daily for 26 days, data not shown
[3] = Exposure comparison of PG and phase-I and phase-II metabolites in dog and human plasma; details: oral EC MEDI7219 tablets; samples through 8 h; human PG 800 mg (N = 8), dog PG 200 mg/kg/day (N = 6)
Protocol: Dog blood was collected via jugular vein in potassium (K2) EDTA tubes and processed to plasma. Samples were centrifuged at approximately 3000 rpm for 5 min at approximately 4 °C within 30 min of collection. Plasma samples were acidified with 1% (v/v) formic acid (FA) to avoid degradation of PG and metabolites in plasma within 20 min of the start of centrifugation and then stored frozen (≤-60 °C). Acidified plasma was extracted using internal standard-spiked solution (100 mM ammonium bicarbonate: acetonitrile = 1:4). Samples were then centrifuged to collect supernatant, followed by drying to completion. The dried samples were reconstituted with 200 uL of 0.1% (v/v) formic acid in water. Samples were vortexed and centrifuged before injection. In order to assess potential impact of hemolysis on qualification of PG and its metabolites, hemolyzed plasma was prepared by spiking fully hemolyzed whole blood at an indicated percentage into plasma.
Separations were conducted on a reversed-phase column (Phenomenex, Kinetex F5, 2.6 μm 100 Å, 100 × 4.6 mm) at a flow rate of 0.7 mL/min at 40 °C. Mobile phase A was 0.1% formic acid in water and mobile phase B was 0.1% formic acid in methanol. The samples were analyzed on a SCIEX 6500+ QTRAP under negative ESI mode. The total run time was 5.5 min. Eight calibration standards and three quality control (LQC, MQC and HQC) samples were used for quantification.
The primary metabolites of PG were measured in dog and human plasma following oral administration of EC MEDI7219 tablets to examine a potential mechanism of the PG-mediated renal toxicity in dog and its possible translatability to humans. Plasma concentrations of PG, its phase-I metabolites GA and 4OMGA and phase-II glucuronide and glutathione conjugates were measured. The human and dog samples, collected through 8 h after administration, were analyzed and the results were compared (Figure , Figure S5). Based on allometric scaling method the highest daily dose administered in humans was approximately 8-fold less compared with the dose level tested in dogs.
Human (H) data is in black. Dog (D) data is in red (study 002). Concentration (mM) is in log10 scale. Data was normalized to PG dose (mg/kg/day). N = 8 for human (PG dosed at 800 mg with MEDI7219 tablets). N = 6 for dogs (PG dosed at 200 mg/kg/day). Below LLOQ values were set to 1/2 LLOQ for the calculation.

Work on `CCCOC(=O)c1cc(O)c(O)c(O)c1` [PG, propyl gallate] yielded an AUC(0-t) ([1]; 12.5 mg/kg/day, PG 12.5, NaCDC 10, MEDI7219 0.75 mg/kg/day, clin excipients, Study 005 Day 112, read-out: Propyl Gallate Exposure (AUC0-24)) of 72 ng·h/mL, an AUC(0-t) ([1]; 12.5 mg/kg/day, PG 12.5, NaCDC 10, MEDI7219 0.75 mg/kg/day, clin excipients, Study 005 Day 196, read-out: Propyl Gallate Exposure (AUC0-24)) of 88 ng·h/mL and an AUC(0-t) ([1]; 12.5 mg/kg/day, PG 12.5, NaCDC 10, MEDI7219 0.75 mg/kg/day, clin excipients, Study 005 Day 266, read-out: Propyl Gallate Exposure (AUC0-24)) of 90 ng·h/mL. The AUC(0-t) ([1]; 14 mg/kg/day, PG 14, NaCDC 7, MEDI7219 0.4 mg/kg/day, clin excipients, Study 004 Day 78, read-out: Propyl Gallate Exposure (AUC0-24)) was 101 ng·h/mL, the AUC(0-t) ([1]; 200 mg/kg/day, PG 200, NaCDC 0, MEDI7219 0 mg/kg/day, clin excipients minus NaCDC and Tris, Study 002 Day 14, read-out: Propyl Gallate Exposure (AUC0-24)) was 1890 ng·h/mL and the AUC(0-t) ([1]; 200 mg/kg/day, PG 200, NaCDC 0, MEDI7219 0 mg/kg/day, clin excipients minus NaCDC and Tris, Study 002 Day 21, read-out: Propyl Gallate Exposure (AUC0-24)) was 4840 ng·h/mL. For the same compound, the AUC(0-t) ([1]; 200 mg/kg/day, PG 200, NaCDC 0, MEDI7219 0 mg/kg/day, clin excipients minus NaCDC, Study 002 Day 14, read-out: Propyl Gallate Exposure (AUC0-24)) was 2580 ng·h/mL, the AUC(0-t) ([1]; 200 mg/kg/day, PG 200, NaCDC 0, MEDI7219 0 mg/kg/day, clin excipients minus NaCDC, Study 002 Day 21, read-out: Propyl Gallate Exposure (AUC0-24)) was 1850 ng·h/mL and the AUC(0-t) ([1]; 200 mg/kg/day, PG 200, NaCDC 0, MEDI7219 0 mg/kg/day, clin excipients minus NaCDC, Study 003 Day 22, read-out: Propyl Gallate Exposure (AUC0-24)) was 6290 ng·h/mL. The AUC(0-t) ([1]; 200 mg/kg/day, PG 200, NaCDC 0, MEDI7219 0 mg/kg/day, gelatin capsule (PG only), Study 003 Day 22, read-out: Propyl Gallate Exposure (AUC0-24)) was 1980 ng·h/mL, the AUC(0-t) ([1]; 200 mg/kg/day, PG 200, NaCDC 100, MEDI7219 0 mg/kg/day, clin excipients minus Tris, Study 002 Day 14, read-out: Propyl Gallate Exposure (AUC0-24)) was 2760 ng·h/mL and the AUC(0-t) ([1]; 200 mg/kg/day, PG 200, NaCDC 100, MEDI7219 0 mg/kg/day, clin excipients minus Tris, Study 002 Day 21, read-out: Propyl Gallate Exposure (AUC0-24)) was 1800 ng·h/mL. It also gave an AUC(0-t) ([1]; 200 mg/kg/day, PG 200, NaCDC 100, MEDI7219 0 mg/kg/day, clin excipients, Study 002 Day 14, read-out: Propyl Gallate Exposure (AUC0-24)) of 3250 ng·h/mL, an AUC(0-t) ([1]; 200 mg/kg/day, PG 200, NaCDC 100, MEDI7219 2 mg/kg/day, clin excipients, Study 001 Day 28, read-out: Propyl Gallate Exposure (AUC0-24)) of 1210 ng·h/mL and an AUC(0-t) ([1]; PG 25, NaCDC 20, MEDI7219 0.25 mg/kg/day, clin excipients, Study 005 Day 112, read-out: Propyl Gallate Exposure (AUC0-24)) of 135 ng·h/mL. For the same compound, the AUC(0-t) ([1]; PG 25, NaCDC 20, MEDI7219 0.25 mg/kg/day, clin excipients, Study 005 Day 196, read-out: Propyl Gallate Exposure (AUC0-24)) was 232 ng·h/mL, the AUC(0-t) ([1]; PG 36, NaCDC 18, MEDI7219 1.1 mg/kg/day, clin excipients, Study 004 Day 78, read-out: Propyl Gallate Exposure (AUC0-24)) was 282 ng·h/mL and the AUC(0-t) ([1]; PG 44, NaCDC 22, MEDI7219 0 mg/kg/day, clin excipients, Study 005 Day 196, read-out: Propyl Gallate Exposure (AUC0-24)) was 864 ng·h/mL. It also gave an AUC(0-t) ([1]; PG 44, NaCDC 35, MEDI7219 2.6 mg/kg/day, clin excipients, Study 005 Day 196, read-out: Propyl Gallate Exposure (AUC0-24)) of 1870 ng·h/mL, an AUC(0-t) ([1]; PG 60, NaCDC 48, MEDI7219 0 mg/kg/day, clin excipients, Study 005 Day 112, read-out: Propyl Gallate Exposure (AUC0-24)) of 3610 ng·h/mL and an AUC(0-t) ([1]; PG 60, NaCDC 48, MEDI7219 3.6 mg/kg/day, clin excipients, Study 005 Day 112, read-out: Propyl Gallate Exposure (AUC0-24)) of 829 ng·h/mL. The AUC(0-t) ([1]; PG 76, NaCDC 38, MEDI7219 0.75 mg/kg/day, clin excipients, Study 001 Day 28, read-out: Propyl Gallate Exposure (AUC0-24)) was 618 ng·h/mL, the AUC(0-t) ([1]; PG 100, NaCDC 50, MEDI7219 0 mg/kg/day, clin excipients, Study 004 Day 78, read-out: Propyl Gallate Exposure (AUC0-24)) was 1830 ng·h/mL and the AUC(0-t) ([1]; PG 100, NaCDC 50, MEDI7219 3 mg/kg/day, clin excipients, Study 004 Day 78, read-out: Propyl Gallate Exposure (AUC0-24)) was 767 ng·h/mL. For the same compound, the AUC(0-t) ([1]; PG 200, NaCDC 100, MEDI7219 0 mg/kg/day, clin excipients, Study 001, Day 28 column but Day 7 AUC value is presented (footnote g), read-out: Propyl Gallate Exposure (AUC0-24)) was 2560 ng·h/mL, the AUC(0-t) ([1]; female, 25 mg/kg/day, female (F), PG 25, NaCDC 20, MEDI7219 0.25 mg/kg/day, clin excipients, Study 005 Day 266, read-out: Propyl Gallate Exposure (AUC0-24)) was 986 ng·h/mL and the AUC(0-t) ([1]; male, 25 mg/kg/day, male (M), PG 25, NaCDC 20, MEDI7219 0.25 mg/kg/day, clin excipients, Study 005 Day 266, read-out: Propyl Gallate Exposure (AUC0-24)) was 158 ng·h/mL. The Tmax [2] was 3 to 4 h, the “Nephrotoxicity / kidney injury” value (beagles) was “did not result in nephrotoxicity” and the “Plasma exposure, humans compared with dogs” value [3] was “comparable between the two species”.
